According to US20040259888A1, “Novel 4-aminofuropyrimidines and the use thereof” (priority 2001, published 2004):

Columns and labels:
[1] = target: human recombinant adenosine kinase (Homo sapiens, UniProt P55263); assay: Inhibition of human recombinant adenosine kinase; type: biochemical; conditions: 14C-adenosine substrate, 0.5 mM ATP, 37° C., 20 min; read-out: Adenosine kinase inhibition (in vitro): IC50
Procedure: 1. Inhibition of Human Recombinant Adenosine Kinase
The test is carried out on 96-well filter plates (DE81 from Millipore, DEAE cellulose, 0.65 μm). The test buffer contains 50 mM tris/HCl pH 8.0, 10 mM DTT and 1 mM MgCl2; immediately prior to the start of the test, ATP is added in a concentration of 0.5 mM. The substrate used is ^14C-adenosine, diluted 1:30 in cold adenosine; the final concentration of the cold adenosine is 4×10^−6 M; the amount of ^14C-adenosine is chosen such that, at a volume of 10 μl, an activity of 0.5 kBq (=30 000 decays per minute) is present per well of the filter plate. The substances to be tested are dissolved in DMSO in a concentration of 10^−2 M. Further dilutions are carried out using water.
When carrying out the test, initially 80 μl of buffer are initially charged into each well. The test substances, the substrate adenosine and finally human recombinant adenosine kinase (Mathews J. J. et al., Biochemistry (1998) 37, 15607-15620) in test buffer pH 7.4 are added successively, in each case in a volume of 10 μl. The adenosine kinase concentration is chosen such that at most 30% of the total amount of adenosine are converted. The plates are then incubated at 37° C. for 20 min. The reaction is then stopped by filtration with suction. The filters are washed in each case once with ice-cold wash buffer (15 mM Tris/HCl pH 8.5) and ethanol. The plate is dried at 37° C. (about 15 min). 50 μl of scintillation solution are then pipetted into each well, and the ^14C activity is determined in a MicroBeta counter.
The inhibition of the enzyme activity by the substances tested is determined after substration of the blank value (no added enzyme) in comparison to the uninhibited enzyme (100% value).

Sequence of human recombinant adenosine kinase (P55263 1-345 isoform P55263-2): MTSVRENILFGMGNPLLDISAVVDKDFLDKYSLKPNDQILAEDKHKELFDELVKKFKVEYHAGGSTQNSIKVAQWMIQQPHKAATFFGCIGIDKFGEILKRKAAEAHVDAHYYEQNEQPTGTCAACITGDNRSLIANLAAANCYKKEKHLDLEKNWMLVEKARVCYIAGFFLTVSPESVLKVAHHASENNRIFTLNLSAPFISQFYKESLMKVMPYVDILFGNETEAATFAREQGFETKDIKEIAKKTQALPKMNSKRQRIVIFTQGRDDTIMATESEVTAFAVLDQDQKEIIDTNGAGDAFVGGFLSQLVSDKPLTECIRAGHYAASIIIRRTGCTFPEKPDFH

| SMILES | melting point [°C] | IC50 [1] [nM] |
| --- | --- | --- |
| CN1CCN(c2ncnc3oc(-c4ccc(N)cc4)c(-c4ccc(F)cc4)c23)CC1 [Example 4, 4-[5-(4-Fluorophenyl)-4-(4-methyl-1-piperazinyl)furo[2,3-d]pyrimidin-6-yl]aniline] | 214 to 215 | 50 |
| CN1CCN(c2ncnc3oc(-c4ccc(N)nc4)c(-c4ccccc4)c23)CC1 [Example 8, 5-[4-(4-Methyl-1-piperazinyl)-5-phenylfuro[2,3-d]pyrimidin-6-yl]-2-pyridineamine] | 229 to 231 | 80 |
| CN(C)CC(=O)Nc1ccc(-c2oc3ncnc(N4CCOCC4)c3c2-c2ccc(F)cc2)cc1 [Example 35] | 228 to 235 | 20 |
| CN1CCN(c2ncnc3oc(-c4ccc(NCCO)nc4)c(-c4ccccc4)c23)CC1 [Example 37] | 219 to 221 | 20 |
| NC1CCN(c2ccc(-c3oc4ncnc(N5CCC(N)CC5)c4c3-c3ccc(F)cc3)cn2)CC1 [Example 270] |  | 30 |
| CCN1CCN(c2ccc(-c3oc4ncnc(N5CCN(CC)CC5)c4c3-c3ccc(F)cc3)cn2)CC1 [Example 326] |  | 15 |
